Measured values taken from US7053107B2, “Indazole compounds and pharmaceutical compositions for inhibiting protein kinases, and methods for their use” (Agouron Pharmaceuticals, Inc., priority 2002, dated 2006).

Experiments:
HUVEC = assay: bFGF Huvec; type: cell-based; conditions: Homo sapiens
KDR = target: T1, KDR (Homo sapiens, UniProt P35968); assay: KDR (VEGFR2) Phosphorylation in PAE-KDR Cells Assay; type: cell-based; conditions: PAE cells overexpressing human KDR
T1 construct: expressed in transfected cells; host or cells: porcine aorta endothelial (PAE) cells
T1 sequence (P35968 20-1356): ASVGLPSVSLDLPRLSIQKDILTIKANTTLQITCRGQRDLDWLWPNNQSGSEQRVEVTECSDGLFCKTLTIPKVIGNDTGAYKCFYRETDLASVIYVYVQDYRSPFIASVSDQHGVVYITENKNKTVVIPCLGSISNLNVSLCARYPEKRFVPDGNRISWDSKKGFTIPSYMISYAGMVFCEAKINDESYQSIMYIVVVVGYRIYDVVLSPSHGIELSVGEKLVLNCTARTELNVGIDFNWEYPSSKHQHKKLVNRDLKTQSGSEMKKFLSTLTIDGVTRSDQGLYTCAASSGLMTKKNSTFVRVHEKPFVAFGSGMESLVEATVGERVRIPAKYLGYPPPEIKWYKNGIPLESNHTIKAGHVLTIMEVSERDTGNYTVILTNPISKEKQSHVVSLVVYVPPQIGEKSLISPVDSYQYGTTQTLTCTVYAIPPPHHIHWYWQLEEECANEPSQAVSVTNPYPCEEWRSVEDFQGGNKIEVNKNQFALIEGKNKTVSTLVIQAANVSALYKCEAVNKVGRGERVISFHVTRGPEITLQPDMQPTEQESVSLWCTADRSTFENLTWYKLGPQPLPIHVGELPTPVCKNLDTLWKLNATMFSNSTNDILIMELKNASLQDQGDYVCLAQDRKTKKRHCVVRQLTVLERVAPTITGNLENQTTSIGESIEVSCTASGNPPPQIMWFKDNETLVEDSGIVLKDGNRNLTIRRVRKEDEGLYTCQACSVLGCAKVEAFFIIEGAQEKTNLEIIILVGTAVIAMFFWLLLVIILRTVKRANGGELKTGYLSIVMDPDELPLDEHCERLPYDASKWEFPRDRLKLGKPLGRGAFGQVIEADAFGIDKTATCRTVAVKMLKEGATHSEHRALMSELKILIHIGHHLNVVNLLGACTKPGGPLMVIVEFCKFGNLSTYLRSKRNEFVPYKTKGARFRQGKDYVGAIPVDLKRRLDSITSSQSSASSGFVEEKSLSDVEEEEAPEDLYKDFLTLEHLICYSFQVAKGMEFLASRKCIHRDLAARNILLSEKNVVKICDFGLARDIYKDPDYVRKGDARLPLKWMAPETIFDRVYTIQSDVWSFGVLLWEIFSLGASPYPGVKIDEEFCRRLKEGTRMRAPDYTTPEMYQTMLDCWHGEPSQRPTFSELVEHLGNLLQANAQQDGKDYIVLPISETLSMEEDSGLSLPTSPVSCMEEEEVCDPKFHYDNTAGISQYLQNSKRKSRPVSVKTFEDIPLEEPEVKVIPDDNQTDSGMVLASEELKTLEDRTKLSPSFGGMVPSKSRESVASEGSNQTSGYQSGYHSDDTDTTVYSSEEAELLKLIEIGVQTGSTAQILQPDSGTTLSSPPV
Protocol: This assay determines the ability of a test compound to inhibit the autophosphorylation of KDR in porcine aorta endothelial (PAE)-KDR cells. PAE cells that overexpress human KDR were used in this assay. The cells were cultured in Ham's F12 media supplemented with 10% fetal bovine serum (FBS) and 400 μg/mL G418. Thirty thousands cells were seeded into each well of a 96-well plate in 75 μL of growth media and allowed to attach for 6 hours at 37° C. Cells were then exposed to the starvation media (Ham's F12 media supplemented with 0.1% FBS) for 16 hours. After the starvation period was over, 10 μL of test agent in 5% DMSO in starvation media were added to the test wells and 10 μL of the vehicle (5% DMSO in starvation media) were added into the control wells. The final DMSO concentration in each well was 0.5%. Plates were incubated at […] for 1 hour and the cells were then stimulated with 500 ng/ml VEGF (commercially available from R & D System) in the presence of 2 mM Na3VO4 for 8 minutes. The cells were washed once with 1 mm Na3VO4 in HBSS and lysed by adding 50 μL per well of lysis buffer. […] Phosphorylation status was assessed by spectrophotometer reading at 450 nm. IC50 values were calculated by curve fitting using a four-parameter analysis.

[1] = target: T2, phosphorylated VEGF-R2Δ50 (Homo sapiens, UniProt P35968, DEL940-989/E990V); assay: VEGF-R2 coupled spectrophotometric (FLVK-P) assay, phosphorylated construct; type: biochemical; conditions: Ki (nM)
T2 construct: VEGF-R2Δ50 contains residues 806–939 and 990–1171; made in house; host or cells: baculovirus/insect cell system
T2 sequence (P35968 with tags, fused parts or gaps DEL940-989/E990V limits assumed): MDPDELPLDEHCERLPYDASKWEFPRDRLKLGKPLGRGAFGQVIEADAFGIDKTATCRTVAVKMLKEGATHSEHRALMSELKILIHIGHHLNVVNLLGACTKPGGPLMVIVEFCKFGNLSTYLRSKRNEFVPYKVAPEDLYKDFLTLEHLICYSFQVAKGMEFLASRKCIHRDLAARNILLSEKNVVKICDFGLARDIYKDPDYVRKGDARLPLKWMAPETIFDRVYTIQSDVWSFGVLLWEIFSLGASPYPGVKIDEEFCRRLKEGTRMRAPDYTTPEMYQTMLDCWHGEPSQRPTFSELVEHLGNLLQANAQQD
Description: This construct determines the ability of a test compound to inhibit tyrosine kinase activity. A construct (VEGF-R2Δ50) of the cytosolic domain of human vascular endothelial growth factor receptor 2 (VEGF-R2) lacking the 50 central residues of the 68 residues of the kinase insert domain was expressed in a baculovirus/insect cell system. Of the 1356 residues of full-length VEGF-R2, VEGF-R2Δ50 contains residues 806–939 and 990–1171, and also one point mutation (E99OV) within the kinase insert domain relative to wild-type VEGF-R2. Autophosphorylation of the purified construct was performed by incubation of the enzyme at a concentration of 4 μM in the presence of 3 mM ATP and 40 mM MgCl2 in 100 mM HEPES, pH 7.5, containing 5% glycerol and 5 mM DTT, at 4° C. for 2 h. […] See Parast et al., Biochemistry, 37,16788–16801 (1998).
The production of ADP from ATP that accompanies phosphoryl transfer was coupled to oxidation of NADH using phosphoenolpyruvate (PEP) and a system having pyruvate kinase (PK) and lactic dehydrogenase (LDH). The oxidation of NADH was monitored by following the decrease of absorbance at 340 nm (e340=6.22 cm^−1 mM^−1) using a Beckman DU 650 spectrophotometer. […] Ki values were determined by measuring enzyme activity in the presence of varying concentrations of test compounds. The data were analyzed using Enzyme Kinetic and Kaleidagraph software.

[2] = target: T3, unphosphorylated VEGF-R2Δ50 (Homo sapiens, UniProt P35968, DEL940-989/E990V); assay: VEGF-R2 coupled spectrophotometric assay, unphosphorylated construct (FLVK); type: biochemical; conditions: % inhibition at 50 nM compound; read-out: FLVK Ki % inh @ 50 nM
T3 construct: VEGF-R2Δ50 contains residues 806–939 and 990–1171; made in house; host or cells: baculovirus/insect cell system
T3 sequence (P35968 with tags, fused parts or gaps DEL940-989/E990V limits assumed): as above
Method in brief: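 Human VEGF-R2Δ50 kinase (residues 806–939/990–1171, baculovirus-expressed; autophosphorylated form pre-treated with 3 mM ATP, 4° C, 2 h), 5–40 nM, with poly(E4Y1) in 200 mM HEPES pH 7.5; ADP coupled via PK/LDH to NADH oxidation at 340 nm. Phosphorylated: 1 mM ATP, 5.1 mM poly(E4Y1), 25 mM MgCl2; unphosphorylated: 3 mM ATP, 20 mM poly(E4Y1), 60 mM MgCl2, 2 mM MnCl2. Ki from activity at varying compound levels.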

[3] = test system: human umbilical vein endothelial cells (HUVEC); assay: HUVEC Proliferation Assay (VEGF-stimulated); type: cell-based
Method in brief: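 Serum-starved HUVEC (passage 3–4, F12K + 1% FBS, 24 h) pretreated 1 h with compound (final DMSO 0.1%), then stimulated with 6 ng/mL VEGF for 72 h. Proliferation read by 4 h MTT reduction, absorbance 595. IC50 from seven-point 0.5-log curves in triplicate; screening % inhibition normalised to VEGF-only and starvation controls.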

FGF-R1 = target: T4, FGF-R1 (Homo sapiens, UniProt P11362, C488A/C584S/L457V); assay: Fibroblast Growth Factor (FGF-R) spectrophotometric assay; type: biochemical; conditions: 1 μM compound; read-out: FGF-P % inhibit @1 μM
T4 construct: starting from the endogenous methionine residue 456 to glutamate 766; made in house; host or cells: baculovirus vector expression system
T4 sequence (P11362 456-766 L457V/C488A/C584S): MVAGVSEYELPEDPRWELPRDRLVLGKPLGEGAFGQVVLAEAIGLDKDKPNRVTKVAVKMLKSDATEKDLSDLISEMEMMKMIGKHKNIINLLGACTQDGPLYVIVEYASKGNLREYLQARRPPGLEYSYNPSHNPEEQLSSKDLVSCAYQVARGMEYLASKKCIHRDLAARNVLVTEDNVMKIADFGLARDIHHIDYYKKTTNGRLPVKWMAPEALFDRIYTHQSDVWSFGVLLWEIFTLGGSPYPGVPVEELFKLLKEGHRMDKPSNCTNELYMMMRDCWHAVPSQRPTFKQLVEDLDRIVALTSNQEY
Method in brief: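 Baculovirus-expressed human FGF-R1 kinase domain (Met456–Glu766; L457V/C488A/C584S), 50 nM, with 2 mM ATP and 15 mM poly(E4Y1) in HEPES pH 7.5. ADP formation coupled via PK/LDH to NADH oxidation, read as A340 decrease. Ki from activity across varying compound concentrations.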

## Cc1ccnc(/C=C/c2n[nH]c3cc(Nc4ccccc4C(=O)NCC#CC4CC4)ccc23)c1 [Example 36, N-(3Cycloprop-2-ynyl)-2-{3-[(E)-2-(4-methyl-pyridin-2-yl)-vinyl]-1H-indazol-6-ylamino}-benzamide]
HUVEC
  IC50: 935 nM
KDR
  IC50: 1.62 nM
[1]
  Ki: 0.3 nM
[2]
  inhibition at 0.05 µM: 95%
[3]
  IC50: 1.67 nM
FGF-R1
  inhibition at 1 µM: 69%

## Cc1ccnc(/C=C/c2n[nH]c3cc(Nc4ccccc4C(=O)NCc4ccccn4)ccc23)c1 [Example 37, 2-{3-[2-(4-Methyl-pyridin-2-yl)-vinyl]-1H-indazol6-ylamino}-N-pyridin-2-ylmethyl-benzamide]
KDR
  IC50: 0.76 nM
[2]
  inhibition at 0.05 µM: 90%
FGF-R1
  inhibition at 1 µM: 45%
